Experimental findings from ChEMBL document CHEMBL1135854, “Absorption studies on aminoglycoside binding to the packaging region of human immunodeficiency virus type-1” (Bioorg Med Chem Lett, 2002) are described below.

The test deals with Human immunodeficiency virus 1. Description: Binding to 176-mer RNA from the packaging region of HIV-1 (LAI) and value of binding constant K is determined. Type of test: functional.

The molecule `NC[C@@H]1O[C@H](O[C@H]2[C@@H](O)[C@H](O[C@@H]3[C@@H](O)[C@H](N)C[C@H](N)[C@H]3O[C@H]3O[C@H](CO)[C@@H](O)[C@H](O)[C@H]3N)O[C@@H]2CO)[C@H](N)[C@@H](O)[C@@H]1O` yielded a K of 43000 M⁻¹.
In the case of `NC[C@@H]1O[C@H](O[C@H]2[C@@H](O)[C@H](O[C@@H]3[C@@H](O)[C@H](N)C[C@H](N)[C@H]3O[C@H]3O[C@H](CN)[C@@H](O)[C@H](O)[C@H]3N)O[C@@H]2CO)[C@H](N)[C@@H](O)[C@@H]1O` it was 120000 M⁻¹; in that of `NCC1O[C@H](O[C@H]2[C@@H](O)[C@H](O[C@H]3[C@H](O)[C@@H](N)C[C@@H](N)[C@@H]3O[C@H]3O[C@H](CN)[C@@H](O)[C@H](O)[C@H]3N)O[C@@H]2CSCCOCCSSCCOCCSC[C@H]2O[C@@H](O[C@H]3[C@H](O)[C@@H](N)C[C@@H](N)[C@@H]3O[C@H]3O[C@H](CN)[C@@H](O)[C@H](O)[C@H]3N)[C@H](O)[C@@H]2O[C@@H]2OC(CN)[C@H](O)[C@@H](O)[C@@H]2N)[C@H](N)[C@@H](O)[C@@H]1O` (stereo not given in full), 3800 M⁻¹; in that of `NCC1OC(OC2C(CSCCNc3c4ccccc4nc4ccccc34)OC(OC3C(O)C(N)CC(N)C3OC3OC(CN)C(O)C(O)C3N)C2O)C(N)C(O)C1O` (stereo not given), 16000 M⁻¹.
To `N=C(N)NCC1OC(OC2C(CO)OC(OC3C(O)C(NC(=N)N)CC(NC(=N)N)C3OC3OC(CNC(=N)N)C(O)C(O)C3NC(=N)N)C2O)C(NC(=N)N)C(O)C1O` (stereo not given) belongs 100000 M⁻¹.
